Assay results as given in the supplement of paper PMC10307832.

Assays:
Experiment in all cases: relative viability (nuclei count vs DMSO), 5 days (fraction); higher = more cells survive
[1] = compound: COc1cc(Nc2ncc3c(n2)-c2ccc(Cl)cc2C(c2c(F)cccc2OC)=NC3)ccc1C(=O)O [Alisertib] + CC(=O)c1c(C)c2cnc(Nc3ccc(N4CCNCC4)cn3)nc2n(C2CCCC2)c1=O [Palbociclib] (partner 0.5 µM)
Outline: (§1)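 After 5 days of treatment, lung cancer cells in 1536-well plates were fixed and stained in a single step (final 0.05% Triton X-100, 1% formaldehyde, 1 ug/ml Hoechst) and their nuclei counted on 4× images. Treatment had been applied by pin tool the day after seeding as one drug alone or as a fixed anchor-drug dose with five library-drug doses (not always all listed) in √10 steps. Relative viability is the nuclei count of treated wells divided by that of vehicle wells, and values are medians of duplicate plates.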

[2] = compound: COc1cc(Nc2ncc3c(n2)-c2ccc(Cl)cc2C(c2c(F)cccc2OC)=NC3)ccc1C(=O)O [Alisertib] + Cc1nc(Nc2ncc(C(=O)Nc3c(C)cccc3Cl)s2)cc(N2CCN(CCO)CC2)n1 [Dasatinib] (partner 0.075 µM)
Outline: as §1

[3] = compound: COc1cc(Nc2ncc3c(n2)-c2ccc(Cl)cc2C(c2c(F)cccc2OC)=NC3)ccc1C(=O)O [Alisertib] + CC(C)C[C@H](NC(=O)[C@H](Cc1ccccc1)NC(=O)c1cnccn1)B(O)O [Bortezomib] (partner 0.002 µM)
Outline: as §1

[4] = compound: COc1cc(Nc2ncc3c(n2)-c2ccc(Cl)cc2C(c2c(F)cccc2OC)=NC3)ccc1C(=O)O [Alisertib] + CCNC(=O)c1noc(-c2cc(C(C)C)c(O)cc2O)c1-c1ccc(CN2CCOCC2)cc1 [Luminespib] (partner 0.01 µM)
Outline: as §1

| Cell Line | relative viability ([1]; first compound 0.005 µM) | relative viability ([1]; first compound 0.01581 µM) | relative viability ([1]; first compound 0.05 µM) | relative viability ([1]; first compound 0.1581 µM) | relative viability ([1]; first compound 0.5 µM) | relative viability ([2]; first compound 0.005 µM) | relative viability ([2]; first compound 0.01581 µM) | relative viability ([2]; first compound 0.05 µM) | relative viability ([2]; first compound 0.1581 µM) | relative viability ([2]; first compound 0.5 µM) | relative viability ([3]; first compound 0.005 µM) | relative viability ([3]; first compound 0.01581 µM) | relative viability ([3]; first compound 0.05 µM) | relative viability ([3]; first compound 0.1581 µM) | relative viability ([3]; first compound 0.5 µM) | relative viability ([4]; first compound 0.005 µM) | relative viability ([4]; first compound 0.01581 µM) | relative viability ([4]; first compound 0.05 µM) | relative viability ([4]; first compound 0.1581 µM) | relative viability ([4]; first compound 0.5 µM) |
| --- | --- | --- | --- | --- | --- | --- | --- | --- | --- | --- | --- | --- | --- | --- | --- | --- | --- | --- | --- | --- |
| HCC-78 | 0.5 | 0.458 | 0.357 | 0.407 | 0.307 | 0.379 | 0.369 | 0.177 | 0.171 | 0.188 | 0.522 | 0.272 | 0.24 | 0.19 | 0.175 | – | – | – | – | – |
| NCI-H2085 | 0.505 | 0.469 | 0.344 | 0.346 | 0.336 | 0.233 | 0.203 | 0.207 | 0.184 | 0.171 | 0.923 | 0.979 | 0.73 | 0.327 | 0.394 | 0.419 | 0.341 | 0.309 | 0.342 | 0.329 |
| PC-3 [JPC-3] | 0.537 | 0.53 | 0.515 | 0.541 | 0.513 | 0.917 | 0.927 | 0.907 | 0.781 | 0.442 | 0.796 | 0.828 | 0.775 | 0.539 | 0.39 | 0.705 | 0.661 | 0.455 | 0.376 | 0.359 |
| NCI-H2342 | 0.539 | 0.533 | 0.509 | 0.348 | 0.415 | 0.291 | 0.348 | 0.266 | 0.268 | 0.276 | – | – | – | – | – | 0.646 | 0.662 | 0.555 | 0.447 | 0.368 |
| A-427 | 0.493 | 0.444 | 0.255 | 0.276 | 0.24 | 0.645 | 0.565 | 0.291 | 0.139 | 0.128 | 0.89 | 0.818 | 0.751 | 0.149 | 0.15 | 0.916 | 0.576 | 0.243 | 0.141 | 0.209 |
| H3255 | 0.313 | 0.314 | 0.312 | 0.278 | 0.249 | 0.328 | 0.445 | 0.279 | 0.242 | 0.292 | 0.664 | 0.733 | 0.46 | 0.216 | 0.195 | 0.753 | 0.841 | 0.522 | 0.259 | 0.212 |
| HCC-44 | 0.949 | 0.85 | 0.636 | 0.616 | 0.338 | – | – | – | – | – | 0.95 | 0.827 | 0.664 | 0.28 | 0.15 | 0.91 | 0.667 | 0.355 | 0.18 | 0.176 |
| NCI-H1734 | 0.397 | 0.325 | 0.296 | 0.245 | 0.188 | 0.449 | 0.358 | 0.291 | 0.181 | 0.151 | 0.775 | 0.621 | 0.383 | 0.227 | 0.175 | 0.172 | 0.214 | 0.149 | 0.146 | 0.132 |
| NCI-H2228 | 0.641 | 0.689 | 0.378 | 0.118 | 0.125 | 0.414 | 0.416 | 0.248 | 0.0768 | 0.1 | 0.809 | 0.827 | 0.406 | 0.142 | 0.134 | 0.111 | 0.117 | 0.112 | 0.144 | 0.186 |
| ABC-1 | 0.697 | 0.661 | 0.67 | 0.371 | 0.316 | 0.46 | 0.436 | 0.434 | 0.226 | 0.243 | 0.279 | 0.269 | 0.315 | 0.278 | 0.278 | – | – | 0.491 | 0.366 | 0.136 |
| COR-L23 | 0.253 | 0.234 | 0.142 | 0.112 | 0.0947 | 0.486 | 0.439 | 0.23 | 0.0935 | 0.0796 | 0.895 | 0.789 | 0.647 | 0.137 | 0.131 | 0.585 | 0.568 | 0.303 | 0.0956 | 0.0981 |
| NCI-H596 | – | – | – | – | – | 0.593 | 0.688 | 0.626 | 0.53 | 0.342 | – | 0.862 | 1.83 | 0.854 | 0.43 | 0.839 | 0.977 | 1.05 | 0.505 | 0.412 |
| NCI-H358 | 0.111 | 0.117 | 0.104 | 0.0711 | 0.0985 | 0.168 | 0.176 | 0.114 | 0.0896 | 0.0837 | – | – | – | – | – | 0.321 | 0.243 | 0.133 | 0.114 | 0.105 |
| EBC-1 | – | – | – | – | – | – | – | – | – | – | 0.537 | 0.467 | 0.239 | 0.186 | 0.162 | – | – | – | – | – |
| SK-MES-1 | 0.316 | 0.346 | 0.29 | 0.226 | 0.161 | 0.354 | 0.466 | 0.253 | 0.125 | 0.074 | – | – | – | – | – | 0.723 | 0.4 | 0.273 | 0.144 | 0.17 |
| NCI-H1703 | – | – | – | – | – | – | – | – | – | – | 0.337 | 0.287 | 0.134 | 0.147 | 0.102 | – | – | – | – | – |
| NCI-H1944 | 0.33 | 0.357 | 0.27 | 0.187 | 0.159 | 0.196 | 0.217 | 0.218 | 0.113 | 0.113 | – | – | – | – | – | 0.778 | 0.676 | 0.541 | 0.411 | 0.15 |
| NCI-H1563 | – | – | – | – | – | 0.441 | 0.544 | 0.442 | 0.414 | 0.387 | 0.835 | 0.817 | 0.833 | 0.858 | 0.604 | 0.509 | 0.54 | 0.483 | 0.295 | 0.413 |
| NCI-H1395 | 0.603 | 0.6 | 0.597 | 0.44 | 0.388 | 0.384 | 0.376 | 0.451 | 0.329 | 0.296 | – | – | – | – | – | 0.78 | 0.561 | 0.566 | 0.342 | 0.343 |
| NCI-H2170 | 0.366 | 0.365 | 0.243 | 0.22 | 0.155 | 0.443 | 0.561 | 0.403 | 0.225 | 0.167 | – | – | – | – | – | 0.518 | 0.777 | 0.317 | 0.318 | 0.207 |
